Test results as given in US10188665B2, “Ocular therapy using glucocorticoid derivatives selectively penetrating posterior segment tissues” (Allergan, Inc., priority 2005, dated 2019).

Experiments:
[1] = system: VEGF-induced BAB breakdown (iris leakage); assay: VEGF-induced blood aqueous barrier (BAB) breakdown, scanning ocular fluorophotometry of fluorescein leakage; type: in vivo, rabbit; conditions: for Inhibition of VEGF-induced BAB breakdown (fluorescein leakage into anterior segment): rabbit eye, 1 mg (100 μl of 10 mg/ml suspension) intravitreal, then intravitreal VEGF, read 48 h later; for Block of VEGF-induced BAB breakdown (iris leakage): corticosteroid administered systemically or intravitreally
Protocol: (§1) Recombinant vascular endothelial growth factor (VEGF) was obtained from a supplier (R&D Systems). Female Dutch Belt rabbits were anaesthetized with isoflurane inhalation and topical 0.5% proparacaine hydrochloride, and intravitreal injection of one eye with 500 ng VEGF in sterile phosphate buffered saline (PBS) containing 0.1% bovine serum albumin was performed using a 28 guage ½ inch needle. The other eye is given the same volume of the vehicle, without the VEGF.
(§2) The extent of VEGF-induced BRB and BAB breakdown of the blood retinal barrier and the blood aqueous barrier was measured by scanning ocular fluorophotemetry (Fluorotron Master, Ocumetrics Inc.); at various times following intravitreal injection. In this model a fluorescent label is administered intravenously, following by determination of the amount of fluorescenin in the anterior and posterior segment and an indication of iridial and retinal leakage, respectively.
(§3) Sodium fluorescein in 1 ml saline was injected via the marginal ear vein at a concentration of 50 mg/kg, and ocular fluorescein levels in the vitreoretinal chamber and the anterior chamber was determined 50 minutes later.
(§4) Ten milligrams of each compound is added to 1 ml of sterile phosphate-buffered saline (PBS; ph 7.4). At day 0, 100 ml of a 10 mg/ml suspension of each steroid is injected into the vitreous of a rabbit eye. The PBS vehicle is injected into the other eye. VEGF is then injected at a pre-determined time (one month) thereafter, and BRB and BAB breakdown were measured by scanning ocular fluorophotometry 48 hrs later as described in Edelman et al., EXP.

[2] = system: VEGF-induced BRB breakdown (retinal leakage); assay: VEGF-induced blood retinal barrier (BRB) breakdown, scanning ocular fluorophotometry of fluorescein leakage; type: in vivo, rabbit; conditions: for Inhibition of VEGF-induced BRB breakdown (fluorescein leakage into posterior segment): rabbit eye, 1 mg (100 μl of 10 mg/ml suspension) intravitreal, then intravitreal VEGF, read 48 h later; for Block of VEGF-induced BRB breakdown (retinal leakage): corticosteroid administered systemically or intravitreally
Protocol: as §1, §2, §3, §4

[3] = Treatment of cystic macular edema with a GD implant (Example 4); type: in vivo, human
Protocol: A person diagnosed with cystic macular edema treated by administration of a biodegradable drug delivery system administered to each eye of the patient. […] A similar implant is administered subconjunctivally to the patient's right eye. […] No increase in intraocular pressure is seen one week after administration.

[4] = Treatment of wet ARMD with a GD composition (Example 5); type: in vivo, human; conditions: person, intravitreal 100 μl hyaluronic acid solution with about 1000 μg crystals; within one month
Protocol: A person with wet age-related macular degeneration is treated with an intravitreal injection of 100 μl of a hyaluronic acid solution containing about 1000 μg of fluticasone propionate crystals in suspension.

[5] = rabbit, 500 ng VEGF intravitreal, 48 h, 50 min after i.v. fluorescein

| Compound | Inhibition of VEGF-induced BAB breakdown (fluorescein leakage into anterior segment) [1] | Block of VEGF-induced BAB breakdown (iris leakage) ([1]; rabbit) | Inhibition of VEGF-induced BRB breakdown (fluorescein leakage into posterior segment) [2] | Block of VEGF-induced BRB breakdown (retinal leakage) ([2]; rabbit) | further results |
| --- | --- | --- | --- | --- | --- |
| C[C@H]1C[C@H]2[C@@H]3CCC4=CC(=O)C=C[C@]4(C)[C@@]3(Cl)[C@@H](O)C[C@]2(C)[C@@]1(O)C(=O)CO [beclomethasone] | inhibited | completely blocked | inhibited | completely blocked |  |
| CCC(=O)OCC(=O)[C@@]1(OC(=O)CC)[C@@H](C)C[C@H]2[C@@H]3CCC4=CC(=O)C=C[C@]4(C)[C@@]3(Cl)[C@@H](O)C[C@@]21C [Beclomethasone dipropionate, beclomethasone dipropionate] |  |  |  |  | Appearance of retina ([3]; person, implant of about 1000 μg PLGA and about 1000 μg drug, intravitreal left eye, subconjunctival right eye, about 3 months after surgery): appears normal; Degeneration of the optic nerve ([3]; same patient, about 3 months after surgery): appears to be reduced; Intraocular pressure ([3]; same patient, one week after administration): No increase; Inhibition of VEGF-induced BRB breakdown (fluorescein leakage into posterior segment) ([2]; listed as beclomethasone 17,21-dipropionate): completely blocks |
| CCC(=O)O[C@]1(C(=O)SCF)[C@H](C)C[C@H]2[C@@H]3C[C@H](F)C4=CC(=O)C=C[C@]4(C)[C@@]3(F)[C@@H](O)C[C@@]21C [Fluticasone propionate, fluticasone propionate] |  |  | completely blocks |  | Rate of neovascularization and related inflammation [4]: acceptable reduction |
| VEGF |  |  |  |  | Increase in fluorescein contained in the aqueous versus normal untreated eyes [1, 5]: approximately 6 fold; Increase in fluorescein contained in the vitreous versus normal untreated eyes [2, 5]: approximately 18 fold |
| CC1(C)O[C@@H]2C[C@H]3[C@@H]4CCC5=CC(=O)C=C[C@]5(C)[C@@]4(F)[C@@H](O)C[C@]3(C)[C@]2(C(=O)CO)O1 [Triamcinolone acetonide, triamcinolone acetonide] | completely inhibited | completely blocked | completely inhibited | completely blocked |  |
